These results are taken from BindingDB's records for patent US20240262835 (Antengene Discovery, 2024).

Molecules are shown by their SMILES.

Broadly, the IC50 is the concentration that inhibits the measured activity by half.

This experiment concerns the target Methylosome protein 50/Protein arginine N-methyltransferase 5 (Homo sapiens, UniProt O14744). Briefly: PRMT5/MEP50 HotSpot Methyltransferase Assay. The method, then: Table 2: The assay used recombinant full-length histone H2A as the substrate of PRMT5. Enzymatic transfer of the tritiated methyl group from S-adenosyl-L-[methyl-3H]methionine (3H-SAM) to the histone H2A protein generated a radiolabeled histone H2A by measuring in a scintillation counter to determine the activity of PRMT5 enzyme in the presence and absence of compound. The assay reactions were conducted in the presence of 100 nM MTA. Briefly, compounds were solubilized in 100% DMSO at the highest concentration of 10 mM. […] Control samples lacking compound, PRTM5/MEP50 complex or various reaction components also were prepared and processed in parallel with compound test samples. SAH was used as a positive control for assay validation. To measure PRMT5 inhibitory activity, 1 nM PRTM5/MEP50 complex was preincubated with test compound in assay buffer containing 5 μM full-length histone H2A for 15 minutes at room temperature. The enzymatic reaction was initiated by adding 1 μM 3H-SAM (final concentration) and the mixture was incubated at 30° C. for 1 hour. The reaction was stopped and transferred to filter paper for detection. The amount of tritiated H2A in each sample was determined using a scintillation counter.

Methylosome protein 50/Protein arginine N-methyltransferase 5, sequence (O14744 whole entry): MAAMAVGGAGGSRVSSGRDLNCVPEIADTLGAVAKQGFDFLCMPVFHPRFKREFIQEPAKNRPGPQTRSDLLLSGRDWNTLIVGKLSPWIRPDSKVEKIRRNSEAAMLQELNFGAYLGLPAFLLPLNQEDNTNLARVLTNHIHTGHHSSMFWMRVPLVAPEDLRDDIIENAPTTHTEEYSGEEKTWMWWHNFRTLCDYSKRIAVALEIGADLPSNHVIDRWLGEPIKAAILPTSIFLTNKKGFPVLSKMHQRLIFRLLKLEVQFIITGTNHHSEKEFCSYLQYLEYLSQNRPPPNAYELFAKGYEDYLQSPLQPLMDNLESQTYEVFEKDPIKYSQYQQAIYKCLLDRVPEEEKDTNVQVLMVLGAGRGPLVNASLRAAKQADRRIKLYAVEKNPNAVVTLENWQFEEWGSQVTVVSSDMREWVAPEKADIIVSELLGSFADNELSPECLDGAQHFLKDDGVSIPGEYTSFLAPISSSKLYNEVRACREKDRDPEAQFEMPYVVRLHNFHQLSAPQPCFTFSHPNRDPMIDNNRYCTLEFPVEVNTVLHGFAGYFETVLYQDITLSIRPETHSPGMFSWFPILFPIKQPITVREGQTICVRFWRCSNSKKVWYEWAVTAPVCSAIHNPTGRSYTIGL
Methylosome protein 50/Protein arginine N-methyltransferase 5, sequence (Q9BQA1 whole entry, further chain): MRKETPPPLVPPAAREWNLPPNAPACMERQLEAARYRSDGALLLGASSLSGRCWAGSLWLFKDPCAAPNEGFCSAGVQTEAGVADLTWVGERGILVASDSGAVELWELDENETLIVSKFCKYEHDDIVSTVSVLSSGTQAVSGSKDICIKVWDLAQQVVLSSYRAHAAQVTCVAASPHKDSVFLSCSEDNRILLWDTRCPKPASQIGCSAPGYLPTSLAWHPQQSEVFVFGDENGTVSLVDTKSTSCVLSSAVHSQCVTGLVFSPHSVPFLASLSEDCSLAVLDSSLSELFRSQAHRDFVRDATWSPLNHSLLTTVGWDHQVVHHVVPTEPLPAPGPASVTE

`C[C@H](c1ncccn1)N(Cc1ccc(C(F)(F)F)cn1)C(=O)c1ccc2nc(N)n3cncc3c2c1` [US20240262835, Compound 5] returned an IC50 of 81 nM. Then `C[C@H](c1ncccn1)N(Cc1ccc(C(F)(F)F)cn1)C(=O)c1cc2c(cc1F)nc(N)c1cncn12` [US20240262835, Compound 6], with 101 nM. As for `Cn1ncc(-c2ccc3c(c2)nc(N)c2cncn23)c1-c1c(F)cc2ccccc2c1C#N` [US20240262835, Compound 1], the figure is 8 nM. Then `C[C@H](c1ncccn1)N(Cc1ccc(C(F)(F)F)cn1)C(=O)c1cc2c(cn1)nc(N)c1cncn12` [US20240262835, Compound 10], with 379 nM; and `C[C@H](c1ncccn1)N(Cc1ccc(C(F)(F)F)cn1)C(=O)c1ccc2nc(N)c3cncn3c2c1` [US20240262835, Compound 3], with 64 nM; and `C[C@H]1CC[C@H](c2ccc3c(c2)CCC(=O)N3)N(C(=O)c2ccc3nc(N)c4cncn4c3c2)C1` [US20240262835, Compound 4], with 6 nM.
